Laboratory results as given in patent US10654866B2, “Selective estrogen receptor degraders” (Eli Lilly and Company, priority 2018, dated 2020).

Assays:
ERα (wild type) = ERα (wild type) (Homo sapiens (Human), UniProt P03372); assay: ERα (wild type) competition binding assay; conditions: 3H-estradiol competition; Ki from IC50 by Cheng-Prusoff
Experimental: (§1) Add the test compound at 10 different concentrations ranging from 10,000 nM to 0.5 nM, and determine nonspecific binding in the presence of 1 μM of 1713 estradiol. Incubate the binding reaction (140 μL) for 4 hours at room temperature, and then add cold dextran-charcoal buffer (70 μL) (containing per 50 mL of assay buffer, 0.75 g of charcoal and 0.25 g of dextran) to each reaction. Mix the plates for 8 minutes on an orbital shaker at 4° C. and then centrifuge at 3000 rpm at 4° C. for 10 minutes. Transfer an aliquot (120 μL) of the mixture to another 96-well, white flat bottom plate (Costar) and add Perkin Elmer Optiphase Supermix scintillation fluid (175 μL) to each well. Seal the plates and shake vigorously on an orbital shaker. After an incubation of 2.5 hours, read the plates in a Wallac Microbeta counter. […] Convert the IC50 values for the compound to Ki using Cheng-Prusoff equation.

ERα (Y537S mutant) = ERα (Y537S mutant) (Homo sapiens (Human), UniProt P03372, Y537S); assay: ERα (Y537S mutant) competition binding assay; conditions: 3H-estradiol competition; Ki from IC50 by Cheng-Prusoff
Experimental: as §1

ERα = ERα (Homo sapiens (Human), UniProt P03372); assay: ERα degradation assay in MCF7 cells; type: cell-based; conditions: 24 hours, % ER positive cells, read-out: Relative IC50
Experimental: The purpose of the following ERα degradation assay is to measure the degradation of ERα by a test compound in an ERα positive breast cancer cell line such as MCF7.
Culture MCF7 (purchased from ATCC HTB-22) cells in DMEM media supplemented with 10% FBS, 0.01 mg/mL human insulin 1 and 1% penicillin/streptomycin antibiotics and plate in 384-well flat-bottom plates at a density of 4,000 cells per well in phenol red free DMEM media (20 μL) containing 10% charcoal stripped FBS. Incubate the cells overnight in a cell culture incubator (5% CO2, 95% relative humidity and 37° C.) and allow the cells to attach to the plate. The following day dose the cells with the test compound. Use an Echo 555 acoustic dispenser to prepare test compound serial dilutions (1:3) in a range from 6 μM to 0.0003 μM. Dose the cells with the addition of 5 μL from the serial dilution plate to the cell plate producing a final DMSO concentration of 0.2% with a final test compound concentration dose range between 2 and 0.0001 μM. For the maximum point, use media containing 0.2% of DMSO and for the minimum point, use fulvestrant diluted at 2 μM final concentrations in the growth media containing 0.2% DMSO. After dosing with the test compound, incubate the cell plates at 37° C. and 5% CO2 for 24 hours. Fix the cells by adding 14% para-formaldehyde (10 μL) for 30 minutes at room temperature. Wash the cells once with PBS (20 μL) and incubate with PBS (20 μL) containing 0.5% (v/v) TWEEN® 20 for 1 hour. Wash the cells with PBS containing 0.05% TWEEN® 20 (2×) and block with 3% BSA in PBS containing 0.05% TWEEN® 20 and 0.1% TRITON™ X-100 (20 μL/well) for 1 hour at room temperature. Add 1:500 Primary antibody (20 μL) (ERα (Clone SP1) monoclonal rabbit antibody # RM-9101-S, Thermo Scientific) dilution in 1% BSA in PBS containing 0.05% TWEEN® 20 per well, seal the plates and incubate overnight at 4° C. The following day wash the cells with PBS containing 0.05% TWEEN® 20 (2×) and incubate with secondary antibody (20 μL/well) (1:1000 dilution, Goat anti-rabbit IgM ALEXA FLUOR™ 488) in PBS 1% BSA for 105 minutes at room temperature. […] Seal the plates and incubate 1 hour at room temperature on the bench (preserved from light). Scan the plates with ACUMEN EXPLORER™ [Laser-scanning fluorescence microplate cytometer manufactured by TTP LABTECH LTD] to measure ERα. Image analysis is based on cellular fluorescent signals for identifying positive cells. Identify ER positive cells by mean intensity. Use total intensity at 575-640 nm from propidium iodide/DNA to identify individual cells. Assay output is % ER positive cells. Determine the IC50 by curve fitting to a four parameter logistic for each output using GENE DATA™.

MCF7 ESR1 wild type = assay: Cell proliferation assay in MCF7; type: cell-based, human; conditions: seven days; read-out: Relative IC50 (μM) MCF7 ESR1 wild type
Experimental: Seed MCF7 (purchased from ATCC HTB-22) cells at a density of 2,000 cells per well in DMEM phenol red free media 10% FBS (20 μL volume) (charcoal stripped) into a clear bottom 384-well cell culture plate. Plate MCF7-ESRY537N-682 (generated by CRISPR/Cas9 gene editing of ESr1 gene in MCF7 cells, clone #682) in DMEM media supplemented with 10% FBS, and 1% penicillin/streptomycin antibiotics at a density of 1000 cells per well. Incubate the plates at 37° C. and 5% CO2. The following day dose the cells with the test compound. Use an Echo 555 acoustic dispenser to prepare test compound serial dilutions (1:3) in a range from 60 μM to 0.003 μM. Dose the cells with the addition of 5 μL from the serial dilution plate to the cell plate, producing a final DMSO concentration of 0.2% with a final test compound concentration dose range between 20 and 0.001 μM. For the maximum point use media containing 0.2% of DMSO and for the minimum point use fulvestrant diluted at 2 μM final concentrations in the growth media containing 0.2% DMSO. After dosing with the test compound, incubate the cell plates at 37° C. and 5% CO2. Seven days after test compound addition, remove the plates from the incubator and add cold EtOH 96% (65 μL) to each well. […] Seal the plates and incubate 1 hour at room temperature on the bench (preserved from light). Scan the plates with ACUMEN EXPLORER™ [Laser-scanning fluorescence microplate cytometer manufactured by TTP LABTECH LTD].

Chain of ERα (Y537S mutant) (P03372 whole entry Y537S): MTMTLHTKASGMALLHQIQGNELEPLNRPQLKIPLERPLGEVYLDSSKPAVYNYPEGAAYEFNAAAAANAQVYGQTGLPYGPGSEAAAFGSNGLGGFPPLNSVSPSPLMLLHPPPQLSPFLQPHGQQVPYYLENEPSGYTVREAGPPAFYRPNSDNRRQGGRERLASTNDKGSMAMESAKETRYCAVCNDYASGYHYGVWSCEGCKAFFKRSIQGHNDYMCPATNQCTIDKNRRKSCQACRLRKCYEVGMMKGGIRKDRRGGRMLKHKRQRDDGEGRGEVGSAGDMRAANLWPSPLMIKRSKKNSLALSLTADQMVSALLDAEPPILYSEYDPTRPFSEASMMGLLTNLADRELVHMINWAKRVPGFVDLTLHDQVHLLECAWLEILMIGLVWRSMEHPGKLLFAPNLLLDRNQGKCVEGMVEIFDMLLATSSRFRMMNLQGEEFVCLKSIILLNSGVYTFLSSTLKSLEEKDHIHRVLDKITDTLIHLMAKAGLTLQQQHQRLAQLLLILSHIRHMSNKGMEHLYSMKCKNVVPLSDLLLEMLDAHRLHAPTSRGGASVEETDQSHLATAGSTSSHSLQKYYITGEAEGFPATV
Chain of ERα (wild type) (P03372 whole entry): as the sequence (P03372 whole entry Y537S) above, with S537Y counted along it
Chain of ERα (P03372 whole entry): as the sequence (P03372 whole entry Y537S) above, with S537Y counted along it

## Cc1cccc2c1OC(c1ccc(OCCN3CC(CF)C3)cc1)c1c-2cnc2cc(O)ccc12 (single isomer, unassigned) [Example 8A, 5-(4-{2-[3-(Fluoromethyl)azetidin-1-yl]ethoxy}phenyl)-7-methyl-5H-[1]benzopyrano[4,3-c]quinolin-2-ol]
ERα (wild type)
  Ki: 9.33 nM
ERα (Y537S mutant)
  Ki: 66.9 nM
ERα
  DC50: 234 nM
MCF7 ESR1 wild type
  IC50: 0.174 µM
